Measured values published in article PMC12214158, “Structure–activity relationship of ^18F-labeled PD-L1-targeting small molecule ligands: impact of radiolabeling strategy on affinity and in vivo performance” (EJNMMI Radiopharmacy and Chemistry, 2025).

Experiments:
human PD-L1 = biological target: T1, human PD-L1 (Homo sapiens, UniProt Q9NZQ7); assay: Competition binding assay against [^64Cu]Cu-1 on PC3 PD-L1 overexpressing cells; conditions: against [^64Cu]Cu-1 (30 nM), 14 dilutions 1 µM–120 pM, n = 2 from triplicates, read-out: Ki (inhibitory constant from competition binding assay)
T1 construct: expressed in transfected cells; host or cells: PC3 cells (human prostate carcinoma) transduced to overexpress human PD-L1
Method: Prior to competition binding experiments, cells were detached with 0.05% Trypsin–EDTA (Gibco, USA), trypsinized and counted (CASY1 cell counter, Schaerfe System, Reutlingen, Germany). Cells were then diluted in medium to ~ 320,000 cells/mL and seeded to 48 well plates (Falcon Multiwell #353078, ThermoFisher, Karlsruhe, Germany) for at least one day.
For the determination of inhibitory constant (Ki), competition binding experiments were conducted in a minimum of two independent experiments, with each data point formed from triplicates. For this purpose, all described compounds competed with a previously reported biphenyl-based PD-L1 small molecule radioligand (Krutzek et al. [2023b]).
Human PD-L1 transduced PC3 cells were grown under conditions described above. For the experiments, plates were allowed to reach room temperature followed by cooling on ice (each 15 min). 200 µL of assay buffer (PBS) replaced the culture. For each compound, total binding (TB) of the radioligand was determined, along with […] of BMS-1166 (synthesized according to reference (Guzik et al. [2017]) (dissolved in DMSO, resulting in 0.03% v/v) for estimation of nonspecific binding (NSB).
Incubation for 90 min followed, wells were then washed with ice-cold assay buffer (3 washes) and cells subjected to lysis (500 µL of 0.1 M NaOH + 1% SDS). The radioactivity of 400 µL lysate was assessed via a gamma counter (Perkin Elmer Wizard 1480). Binding to polystyrene was determined on an extra plate without any cells under identical conditions. Activity and therefore concentration of the radioligand stock solution was confirmed via 50 µL samples. Data was corrected for radioactive decay to a reference time (end of radiolabeling). The protein content of lysates from a control plate (seeded from the same cell suspension, incubated under identical conditions) was quantified using a BCA assay, and the mean value (µg/mL) was employed for this specific dataset. Via mean protein content and molar activity, final values (pmol/mg protein) were computed from the CPM measurements. Ki was fitted via a One site model (GraphPad Prism 10), using the previously determined KD for the radiolabeled compound and the actual concentration of the radioligand.

[1] = test system: NMRI-nude mice bearing PC3 PD-L1 and PC3 mock tumors; assay: Small animal PET in mice bearing PC3 PD-L1 and PC3 mock tumors; assay type: in vivo; conditions: for SUVmax PC3 PD-L1 tumor / SUVmax PC3 mock tumor / Uptake (SUVmean) Bone (spine) / Uptake (SUVmean) Gall bladder / Uptake (SUVmean) Heart / Uptake (SUVmean) Liver / Uptake (SUVmean) PC3 PD-L1 tumor / Uptake (SUVmean) PC3 mock tumor / Uptake (SUVmean) Small intestine: 1–2 h p.i.; for Uptake (SUVmean) Bone (spine) / Uptake (SUVmean) Gall bladder / Uptake (SUVmean) Heart / Uptake (SUVmean) Liver / Uptake (SUVmean) PC3 PD-L1 tumor / Uptake (SUVmean) PC3 mock tumor / Uptake (SUVmean) Small intestine: mean; for transition from liver and gall bladder into the intestine: time-activity curves
Method: Male athymic NMRI-nude mice (Rj:NMRI-Foxn1nu, Charels River, Germany) aged 8 to 16 weeks were used to investigate pharmacokinetics and tumor uptake. For subcutaneous injection of cells, general anesthesia was induced with ~ 10% desflurane (Baxter, Deerfield, IL, USA) in 30 vol% oxygen + air at controlled 37 °C. Mice were injected with 3–5 × 10^6 PC3 PD-L1 and PC3 mock cells (in 50 µL PBS + 50 µL Matrigel, Corning, Glendale, CA, USA) into the right and left thigh, respectively. Tumor growth was monitored (3 times per week) using calipers, and animals enrolled in PET scans once tumors reached 7 mm.
Under general anesthesia, PET and X-ray computed tomography (CT) scans were conducted using a small animal PET/CT scanner (nanoScan PET/CT, Mediso, Budapest, Hungary), with four animals imaged simultaneously. CT images were used for attenuation correction and anatomical referencing.
The radiotracer candidates were diluted in 200–300 µL sterile 0.9% NaCl (and up to 2% EtOH, pH 6–7) and intravenously delivered over 30 s through a lateral tail vein catheter. PET acquisition (2 h p.i.) was started simultaneously with the administration. Injected activities were between 5 and 12 MBq (with molar activities 5–18 GBq/µmol). If animals were subjected to an additional scan later, the minimum time in between was > 3 days to allow decay and full metabolization.
The acquired three-dimensional list mode data were sorted and binned within a 400–600 keV energy window, forming 35 time frames (15 × 10 s, 5 × 30 s, 5 × 60 s, 4 × 300 s, 3 × 600 s, 3 × 1200 s). Reconstruction was performed with Mediso’s Tera-Tomo™ 3D algorithm, with a voxel size of 0.4 mm and corrections for decay, scatter, and attenuation. The images were subjected to post-processing and analysis using Rover software (ABX GmbH, Radeberg, Germany), and are shown as maximum intensity projections (MIPs) at the specified timepoint and scaling.
Three-dimensional volumes of interest were defined using fixed thresholding at 35–40% of the maximum measured intensity. Standardized uptake values (SUV = [MBq detected activity/mL tissue]/[MBq injected activity/g body weight], in mL/g) were then calculated within the selected volumes of interest, e.g. PD-L1 and mock tumors, as well as other relevant and metabolizing organs.

[2] = Proteolytic stability in human serum, radio-HPLC; assay type: in vitro ADME; conditions: 37 °C, all time points up to 4 h
Method: With both ^18F-ligands in hand, distribution coefficients (log D7.4) were determined using the shake flask method with n-octanol and PBS. The introduction of three hydrophilizing units led to log D7.4 values of − 2.54 ± 0.02 for [^18F]F-2 and − 2.68 ± 0.08 for [^18F]F-3, which indicates moderate hydrophilicity. Subsequently, proteolytic stability was investigated (Supplementary Fig. S68 and S69), by incubating in human serum at 37 °C for up to 4 h. Before incubation (0 h) and 0.5, 1, 2 and 4 h after incubation, an aliquot was taken, and serum proteins were precipitated. Analysis of radiotracers was performed with radio-HPLC, showing the intact radiotracers (0 h) at 7.0 ([^18F]F-2) and 7.7 min ([^18F]F-3). At all time points, radiotracers remained intact up to 99%.
Subsequently, proteolytic stability was investigated (Supplementary Fig. S70 and S71), by incubating in human serum at 37 °C for up to 4 h. Before incubation (0 h) and 0.5, 1, 2 and 4 h after incubation, an aliquot was taken, and serum proteins were precipitated. Analysis of radiotracers was performed with radio-HPLC, showing the intact radiotracers (0 h) at 7.9 (Al[^18F]F-36) and 8.1 min (Al[^18F]F-37). After 4 h, both radiotracers remained intact up to 91% and 92%, respectively.
For proteolytic stability studies, a solution of the radiolabeled compound was diluted with human serum in a ratio of 1:10. […]

PC3 PD-L1 cells = biological target: T2, PC3 PD-L1 cells (Homo sapiens, UniProt Q9NZQ7); assay: Real-time radioligand binding (LigandTracer) to PC3 PD-L1 cells; conditions: room temperature
T2 construct: expressed in transfected cells; host or cells: PC3 cells (human prostate carcinoma) transduced to overexpress human PD-L1
Method: The LigandTracer system (Ridgeview Instruments AB, Uppsala, Sweden) allows assessing the binding kinetics (association rate constant ka and dissociation rate constant kd) and therefore dissociation constant (KD) of radiolabeled compounds. For that purpose, target-positive PC3 PD-L1 cells are seeded to a quadrant of a petri dish (Thermo Scientific Nunclon Delta #150350). In our initial tests, 1.2x10^6 cells were seeded one day prior to the experiment.
The petri dish is then placed in the instrument, the culture medium removed and replaced with 3 mL CO2-independent medium (Gibco #18045088, ThermoFisher Germany). In the LigandTracer system, the dish rotates on an inclined base, with cells in medium (3 mL) located on one side (target), while no cells (background) are located on the other side. Radioactivity (counts per second) is then constantly measured for 30 seconds on either side. This allows continuous measurements of two (or more) alternating parts of the dish for bound radioactivity, with target – background indicating binding over time.
All experiments were performed at room temperature. Association of compounds was observed following incubation with two increasing concentrations of the tracer. The tracer-containing solution was then exchanged for fresh medium, to allow observation of dissociation for at least 120 min.

T1 sequence (Q9NZQ7 19-290): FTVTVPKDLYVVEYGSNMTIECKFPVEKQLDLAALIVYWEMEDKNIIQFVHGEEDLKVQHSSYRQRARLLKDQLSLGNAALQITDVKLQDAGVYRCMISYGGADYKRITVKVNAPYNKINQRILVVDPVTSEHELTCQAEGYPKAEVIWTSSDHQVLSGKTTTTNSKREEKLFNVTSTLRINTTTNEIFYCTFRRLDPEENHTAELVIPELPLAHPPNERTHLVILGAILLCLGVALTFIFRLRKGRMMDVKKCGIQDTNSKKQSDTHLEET
T2 sequence (Q9NZQ7 19-290): as above

Compound | Ki (human PD-L1) [nM] | bone uptake (sign of defluorination) [1] | excretion route [1] | target-specific tumor uptake, PC3 PD-L1 versus PC3 mock [1] | SUVmax PC3 PD-L1 tumor [1] | SUVmax PC3 mock tumor [1] | Uptake (SUVmean) Bone (spine) [1] | Uptake (SUVmean) Gall bladder [1] | Uptake (SUVmean) Heart [1] | Uptake (SUVmean) Liver [1] | Uptake (SUVmean) PC3 PD-L1 tumor [1] | Uptake (SUVmean) PC3 mock tumor [1] | Uptake (SUVmean) Small intestine [1] | transition from liver and gall bladder into the intestine [1] [min] | radiotracer remaining intact [2] | real-time radioligand binding, bound radioactivity over time (PC3 PD-L1 cells)
Cc1c(COc2cc(OCc3cncc(S(C)(=O)=O)c3)c(CN(C)C(=O)[C@H](CS(=O)(=O)O)NC(=O)[C@H](CS(=O)(=O)O)NC(=O)CCP(=O)(O)O)cc2Cl)cccc1-c1cccc(OCc2cn([C@@H]3O[C@H](CF)[C@@H](O)[C@H](O)[C@H]3O)nn2)c1C [Compound 2, (R)−3-((5-Chloro-4-((3'-((1-((2R,3R,4S,5S,6S)−6-(fluoromethyl)−3,4,5-trihydroxytetrahydro-2H-pyran-2-yl)−1H-1,2,3-triazol-4-yl)methoxy)−2,2'-dimethyl-[1,1'-biphenyl]−3-yl)methoxy)−2-((5-(methylsulfonyl)pyridin-3-yl)methoxy)benzyl)(methyl)amino)−3-oxo-2-((R)−2-(3-phosphonopropanamido)−3-sulfopropanamido)propane-1-sulfonic acid] | 189 | – | – | – | – | – | – | – | – | – | – | – | – | – | – | –
Cc1c(COc2cc(OCc3cncc(S(C)(=O)=O)c3)c(CN(C)C(=O)[C@H](CS(=O)(=O)O)NC(=O)[C@H](CS(=O)(=O)O)NC(=O)CCP(=O)(O)O)cc2Cl)cccc1-c1cccc(OCc2cn(CCOCCOCCF)nn2)c1C [Compound 3, (R)−3-((5-Chloro-4-((3'-((1-(2-(2-(2-fluoroethoxy)ethoxy)ethyl)−1H-1,2,3-triazol-4-yl)methoxy)−2,2'-dimethyl-[1,1'-biphenyl]−3-yl)methoxy)−2-((5-(methylsulfonyl)pyridin-3-yl)methoxy)benzyl)(methyl)amino)−3-oxo-2-((R)−2-(3-phosphonopropanamido)−3-sulfopropanamido)propane-1-sulfonic acid] | 475 | – | – | – | – | – | – | – | – | – | – | – | – | – | – | –
Cc1c(COc2cc(OCc3cncc(S(C)(=O)=O)c3)c(CN(C)C(=O)[C@H](CS(=O)(=O)O)NC(=O)[C@H](CS(=O)(=O)O)NC(=O)CCP(=O)(O)O)cc2Cl)cccc1-c1cccc(OCc2cn([C@@H]3O[C@H](C[18F])[C@@H](O)[C@H](O)[C@H]3O)nn2)c1C [[^18F]F-2] | 189 | lacked a discernible bone uptake | exclusively excreted via the hepatobiliary route | marked absence of target-specific uptake | 0.66 | 0.77 | 0.25 | 46.45 | 0.86 | 1.61 | 0.34 | 0.39 | 114.55 | 10 to 15 | up to 99% | –
Cc1c(COc2cc(OCc3cncc(S(C)(=O)=O)c3)c(CN(C)C(=O)[C@H](CS(=O)(=O)O)NC(=O)[C@H](CS(=O)(=O)O)NC(=O)CCP(=O)(O)O)cc2Cl)cccc1-c1cccc(OCc2cn(CCOCCOCC[18F])nn2)c1C [[^18F]F-3] | 475 | lacked a discernible bone uptake | exclusively excreted via the hepatobiliary route | marked absence of target-specific uptake | 0.30 | 0.34 | 0.13 | 150.54 | 0.20 | 0.70 | 0.17 | 0.17 | 105.54 | 10 to 15 | up to 99% | almost no binding takes place and no
